Test results published in US6784137B2, “6-aryl-4-aminopicolinates and their use as herbicides” (Dow AgroSciences LLC, priority 2001, dated 2004).

Which melting point does the source give for `COC(=O)c1nc(-c2ccc3c(c2)CCC3)cc(N)c1Cl` [Compound 75, Methyl 4-amino-3-chloro-6-(5-indanyl)pyridine-2-carboxylate] here?
Its melting point is 165 to 166 °C.

For `Cc1ccccc1-c1cc(N)c(Cl)c(C(=O)O)n1` [Compound 165, 4-Amino-3-chloro-6-(2-methylphenyl)pyridine-2-carboxylic acid], which melting point is on record?
The melting point was 188 to 189 °C.

With `Cn1nccc1-c1cc(N)c(Cl)c(C(=O)O)n1` [Compound 223, 4-Amino-3-chloro-6-(1-methyl-1H-pyrazol-5-yl)pyridine-2-carboxylic acid] as the molecule, how does the melting point read?
The melting point was 230 to 232 °C.

Which melting point does the source give for `Nc1cc(-c2ccc(CF)cc2)nc(C(=O)O)c1Cl` [Compound 160, 4-Amino-3-chloro-6-[4-(fluoromethyl)phenyl]pyridine-2-carboxylic acid] here?
Its melting point is 156 to 157 °C.

Which melting point does the source give for `COC(=O)c1nc(-c2ccc(O)nc2)cc(N)c1Cl` [Compound 108, Methyl 4-amino-3-chloro-6-(6-hydroxy-3-pyridinyl)pyridine-2-carboxylate] here?
The melting point was 251 to 252 °C.

With `COc1cc(Cl)ccc1-c1cc(N)c(Cl)c(C(=O)O)n1` [Compound 186, 4-Amino-3-chloro-6-(4-chloro-2-methoxyphenyl)pyridine-2-carboxylic acid] as the molecule, how does the melting point read?
The melting point was 182 to 183 °C.

With `Nc1cc(-c2nccs2)nc(C(=O)O)c1Cl` [Compound 222, 4-Amino-3-chloro-6-(2-thiazolyl)pyridine-2-carboxylic acid] as the molecule, how does the melting point read?
The melting point was 184 to 185 °C.

Which melting point does the source give for `COC(=O)c1nc(-c2cnn(C)c2)cc(N)c1Cl` [Compound 124, Methyl 4-amino-3-chloro-6-(1-methyl-1H-pyrazol-4-yl)pyridine-2-carboxylate] here?
Its melting point is 174 to 176 °C.

Which melting point does the source give for `COC(=O)c1nc(-c2cnco2)cc(N)c1Cl` [Compound 7, methyl 4-amino-3-chloro-6-(5-oxazolyl)pyridine-2-carboxylate] here?
Its melting point is 166 to 170 °C.

With `COC(=O)c1nc(-c2nnn(C)n2)cc(N)c1Cl` [Compound 11, Methyl 4-amino-3-chloro-6-(2-methyl-2H-tetrazol-5-yl)pyridine-2-carboxylate] as the molecule, how does the melting point read?
Its melting point is 250 to 252 °C.

With `Nc1c(F)c(-c2ccc(Cl)nc2)nc(C(=O)O)c1Cl` [Compound 221, 4-Amino-3-chloro-5-fluoro-6-(6-chloro-3-pyridinyl)pyridine-2-carboxylic acid] as the molecule, how does the melting point read?
Its melting point is 125 °C (dec.).

Which melting point does the source give for `COC(=O)c1nc(-c2ccc(C(C)=O)cc2)cc(N)c1Cl` [Compound 31, Methyl 4-amino-3-chloro-6-(4-acetylphenyl)pyridine-2-carboxylate] here?
Its melting point is 146 to 148 °C.

With `COc1ncc(-c2cc(N)c(Cl)c(C(=O)O)n2)cn1` [Compound 239, 4-Amino-3-chloro-6-(2-methoxy-5-pyrimidinyl)pyridine-2-carboxylic acid] as the molecule, how does the melting point read?
Its melting point is 153 °C.

Which melting point does the source give for `Nc1cc(-c2cnco2)nc(C(=O)O)c1Cl` [Compound 231, 4-Amino-3-chloro-6-(5-oxazolyl)pyridine-2-carboxylic acid] here?
Its melting point is 166 to 170 °C.

With `COC(=O)c1nc(-c2ccc(OC(F)(F)F)cc2)cc(N)c1Cl` [Compound 56, Methyl 4-amino-3-chloro-6-[4-(trifluoromethoxy)phenyl]pyridine-2-carboxylate] as the molecule, how does the melting point read?
The melting point was 119 to 120 °C.

With `COC(=O)c1nc(-c2cnn(C)c2)cc(NC(C)=O)c1Cl` [Compound 87, Methyl 4-acetamido-3-chloro-6-(1-methyl-1H-pyrazol-4-yl)pyridine-2-carboxylate] as the molecule, how does the melting point read?
The melting point was 177 to 178 °C.

With `COC(=O)c1nc(-c2ccc(Cl)c(F)c2)cc(N)c1Cl` [Compound 61, Methyl 4-amino-3-chloro-6-(4-chloro-3-fluorophenyl)pyridine-2-carboxylate] as the molecule, how does the melting point read?
Its melting point is 149 to 151 °C.

With `COC(=O)c1nc(-c2cc3ccccc3s2)cc(N)c1Cl` [Compound 125, Methyl 4-amino-3-chloro-6-(2-benzothienyl)pyridine-2-carboxylate] as the molecule, how does the melting point read?
Its melting point is 177 to 178 °C.

For `COC(=O)c1nc(-c2nccs2)cc(N)c1Cl` [Compound 123, Methyl 4-amino-3-chloro-6-(2-thiazolyl)pyridine-2-carboxylate], which melting point is on record?
Its melting point is 195 to 197 °C.

Which melting point does the source give for `CCOC(=O)c1nc(-c2ccc(Cl)cc2)c(F)c(N)c1Cl` [Compound 252, Ethyl 4-amino-3-chloro-5-fluoro-6-(4-chlorophenyl)pyridine-2-carboxylate] here?
Its melting point is 88 to 89 °C.

With `Nc1cc(-c2ccncc2)nc(C(=O)O)c1Cl` [Compound 209, 4-Amino-3-chloro-6-(4-pyridinyl)pyridine-2-carboxylic acid] as the molecule, how does the melting point read?
The melting point was 155 °C (dec.).

For `Nc1c(Cl)c(C(=O)O)nc(-c2cccs2)c1Cl` [Compound 208, 4-Amino-3,5-dichloro-6-(2-thienyl)pyridine-2-carboxylic acid], which melting point is on record?
The melting point was 144 °C.

For `COC(=O)c1nc(-c2nccs2)cc(NC(C)=O)c1Cl` [Compound 103, Methyl 4-acetamido-3-chloro-6-(2-thiazolyl)pyridine-2-carboxylate], which melting point is on record?
Its melting point is 187 to 188 °C.

With `COC(=O)c1nc(-c2ccc(OC)c(C)c2)cc(N)c1Cl` [Compound 80, Methyl 4-amino-3-chloro-6-(4-methoxy-3-methylphenyl)pyridine-2-carboxylate] as the molecule, how does the melting point read?
The melting point was 158 °C.

For `Nc1c(Cl)c(C(=O)O)nc(-c2ccccc2)c1Cl` [Compound 133, 4-Amino-3,5-dichloro-6-(phenyl)pyridine-2-carboxylic acid], which melting point is on record?
The melting point was 135 °C.

For `Nc1cc(-c2nc3ccccc3s2)nc(C(=O)O)c1Cl` [Compound 230, 4-Amino-3-chloro-6-(2-benzothiazolyl)pyridine-2-carboxylic acid], which melting point is on record?
The melting point was 283 °C.

For `COC(=O)c1nc(-c2ccc(CO)cc2)cc(N)c1Cl` [Compound 242, Methyl 4-amino-3-chloro-6-(4-hydroxymethylphenyl)pyridine-2-carboxylate], which melting point is on record?
Its melting point is 138 to 139 °C.

Which melting point does the source give for `Nc1cc(-c2cccc(C(F)(F)F)c2)nc(C(=O)O)c1Cl` [Compound 157, 4-Amino-3-chloro-6-[3-(trifluoromethyl)phenyl]pyridine-2-carboxylic acid] here?
The melting point was 175 to 176 °C.

With `COC(=O)c1nc(-c2ccnc(OC)c2)cc(N)c1Cl` [Compound 107, Methyl 4-amino-3-chloro-6-(6-methoxy-4-pyridinyl)pyridine-2-carboxylate] as the molecule, how does the melting point read?
Its melting point is 185 to 187 °C.

For `CC(C)c1ccc(-c2cc(N)c(Cl)c(C(=O)O)n2)cc1` [Compound 147, 4-Amino-3-chloro-6-(4-isopropylphenyl)pyridine-2-carboxylic acid], which melting point is on record?
The melting point was 142 to 143 °C.

Which melting point does the source give for `Nc1cc(-c2ccc3c(c2)CCO3)nc(C(=O)O)c1Cl` [Compound 201, 4-Amino-3-chloro-6-(2,3-dihydro-5-benzofuranyl)pyridine-2-carboxylic acid] here?
Its melting point is 218 to 220 °C.

With `COC(=O)c1nc(-c2nccs2)c(F)c(N)c1Cl` [Compound 113, Methyl 4-amino-3-chloro-5-fluoro-6-(2-thiazolyl)pyridine-2-carboxylate] as the molecule, how does the melting point read?
Its melting point is 185 to 187 °C.

With `COC(=O)c1nc(-c2ccc(Cl)cc2OC)cc(NC(C)=O)c1Cl` [Compound 66, Methyl 4-acetamido-3-chloro-6-(4-chloro-2-methoxyphenyl)pyridine-2-carboxylate] as the molecule, how does the melting point read?
The melting point was 176 to 178 °C.

Which melting point does the source give for `COC(=O)c1nc(-c2ccc3c(c2Cl)OCO3)cc(N)c1Cl` [Compound 73, Methyl 4-amino-3-chloro-6-(2-chloro-3,4-methylenedioxyphenyl)pyridine-2-carboxylate] here?
The melting point was 155 to 156 °C.

For `COc1ccc(OC)c(-c2cc(N)c(Cl)c(C(=O)O)n2)c1` [Compound 194, 4-Amino-3-chloro-6-(2,5-dimethoxyphenyl)pyridine-2-carboxylic acid], which melting point is on record?
Its melting point is 185 to 186 °C.

For `Nc1cc(-c2ccc3c(c2Cl)OCO3)nc(C(=O)O)c1Cl` [Compound 187, 4-Amino-3-chloro-6-(2-chloro-3,4-methylenedioxyphenyl)pyridine-2-carboxylic acid], which melting point is on record?
The melting point was 226 to 227 °C.

For `COC(=O)c1nc(-c2ccc(OC)cc2)c(Cl)c(N)c1Cl` [Compound 15, Methyl 4-amino-3,5-dichloro-6-(4-methoxyphenyl)pyridine-2-carboxylate], which melting point is on record?
Its melting point is 107 to 109 °C.

Which melting point does the source give for `Nc1cc(-c2cc(F)cc(F)c2)nc(C(=O)O)c1Cl` [Compound 167, 4-Amino-3-chloro-6-(3,5-difluorophenyl)pyridine-2-carboxylic acid] here?
The melting point was 182 to 183 °C.

For `Nc1cc(-c2ccc(F)cc2)nc(C(=O)O)c1Cl` [Compound 156, 4-Amino-3-chloro-6-(4-fluorophenyl)pyridine-2-carboxylic acid], which melting point is on record?
Its melting point is 170 to 171 °C.

Which melting point does the source give for `COC(=O)c1nc(-c2cncnc2)cc(NC(C)=O)c1Cl` [Compound 117, Methyl 4-acetamido-3-chloro-6-(5-pyrimidinyl)pyridine-2-carboxylate] here?
Its melting point is 178 to 185 °C.

For `COC(=O)c1nc(-c2ccc(Cl)c(F)c2)cc(NC(C)=O)c1Cl` [Compound 60, Methyl 4-acetamido-3-chloro-6-(4-chloro-3-fluorophenyl)pyridine-2-carboxylate], which melting point is on record?
The melting point was 156 to 157 °C.

Which melting point does the source give for `COC(=O)c1nc(-c2cccc(C#N)c2)cc(N)c1Cl` [Compound 42, Methyl 4-amino-3-chloro-6-(3-cyanophenyl)pyridine-2-carboxylate] here?
The melting point was 139 to 140 °C.

With `COC(=O)c1nc(-c2ccsc2)cc(N)c1Cl` [Compound 122, Methyl 4-amino-3-chloro-6-(3-thienyl)pyridine-2-carboxylate] as the molecule, how does the melting point read?
The melting point was 129 °C.

Which melting point does the source give for `COC(=O)c1nc(-c2cccc(OC)c2)cc(N)c1Cl` [Compound 24, Methyl 4-amino-3-chloro-6-(3-methoxyphenyl)pyridine-2-carboxylate] here?
Its melting point is 122 to 123 °C.

With `COC(=O)c1nc(-c2ccc(OC)c(OC)c2)cc(N)c1Cl` [Compound 64, Methyl 4-amino-3-chloro-6-(3,4-dimethoxyphenyl)pyridine-2-carboxylate] as the molecule, how does the melting point read?
The melting point was 126 to 127 °C.

For `COC(=O)c1nc(-c2ccc(C(C)C)cc2)cc(N)c1Cl` [Compound 35, Methyl 4-amino-3-chloro-6-(4-isopropylphenyl)pyridine-2-carboxylate], which melting point is on record?
Its melting point is 92 to 93 °C.

For `Nc1cc(-c2ccc3c(c2)CCC3)nc(C(=O)O)c1Cl` [Compound 188, 4-Amino-3-chloro-6-(5-indanyl)pyridine-2-carboxylic acid], which melting point is on record?
Its melting point is 204 to 205 °C.
